According to the supplement of paper PMC10307832:

How the values were obtained:
Assay in all cases: relative viability (nuclei count vs DMSO), 5 days (fraction); higher = more cells survive
Vandetanib + Decitabine = compound: COc1cc2/c(=N/c3ccc(Br)cc3F)nc[nH]c2cc1OCC1CCN(C)CC1 [Vandetanib] + Nc1ncn([C@H]2C[C@H](O)[C@@H](CO)O2)c(=O)n1 [Decitabine] (partner 2 µM)
Method in brief: (§1)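 Cells from lung cancer lines were seeded into 1536-well plates and, one day later, dosed by pin tool. Treatments were either a single drug or a fixed dose of an anchor drug with five library-drug doses (not always all listed) in √10 steps. After 5 days, nuclei were stained in a one-step fixation (final 0.05% Triton X-100, 1% formaldehyde, 1 ug/ml Hoechst) and counted on 4× images, and relative viability is the treated-to-vehicle nuclei ratio, as the median of duplicate plates.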

Vandetanib + Alpelisib = compound: COc1cc2/c(=N/c3ccc(Br)cc3F)nc[nH]c2cc1OCC1CCN(C)CC1 [Vandetanib] + Cc1nc(NC(=O)N2CCC[C@H]2C(N)=O)sc1-c1ccnc(C(C)(C)C(F)(F)F)c1 [Alpelisib] (partner 2 µM)
Method in brief: as §1

NVP-TAE684 + Tozasertib = compound: COc1cc(N2CCC(N3CCN(C)CC3)CC2)ccc1Nc1ncc(Cl)c(Nc2ccccc2S(=O)(=O)C(C)C)n1 [NVP-TAE684] + Cc1cc(Nc2cc(N3CCN(C)CC3)nc(Sc3ccc(NC(=O)C4CC4)cc3)n2)n[nH]1 [Tozasertib] (partner 0.1 µM)
Method in brief: as §1

Vandetanib + Pictilisib = compound: COc1cc2/c(=N/c3ccc(Br)cc3F)nc[nH]c2cc1OCC1CCN(C)CC1 [Vandetanib] + CS(=O)(=O)N1CCN(Cc2cc3nc(-c4cccc5[nH]ncc45)nc(N4CCOCC4)c3s2)CC1 [Pictilisib] (partner 1 µM)
Method in brief: as §1

| Cell Line | relative viability (Vandetanib + Decitabine; first compound 0.02 µM) | relative viability (Vandetanib + Decitabine; first compound 0.06325 µM) | relative viability (Vandetanib + Decitabine; first compound 0.2 µM) | relative viability (Vandetanib + Decitabine; first compound 0.6325 µM) | relative viability (Vandetanib + Decitabine; first compound 2 µM) | relative viability (Vandetanib + Alpelisib; first compound 0.02 µM) | relative viability (Vandetanib + Alpelisib; first compound 0.06325 µM) | relative viability (Vandetanib + Alpelisib; first compound 0.2 µM) | relative viability (Vandetanib + Alpelisib; first compound 0.6325 µM) | relative viability (Vandetanib + Alpelisib; first compound 2 µM) | relative viability (NVP-TAE684 + Tozasertib; first compound 0.2 µM) | relative viability (NVP-TAE684 + Tozasertib; first compound 0.6325 µM) | relative viability (NVP-TAE684 + Tozasertib; first compound 2 µM) | relative viability (Vandetanib + Pictilisib; first compound 0.02 µM) | relative viability (Vandetanib + Pictilisib; first compound 0.06325 µM) | relative viability (Vandetanib + Pictilisib; first compound 0.2 µM) | relative viability (Vandetanib + Pictilisib; first compound 0.6325 µM) | relative viability (Vandetanib + Pictilisib; first compound 2 µM) |
| --- | --- | --- | --- | --- | --- | --- | --- | --- | --- | --- | --- | --- | --- | --- | --- | --- | --- | --- |
| LCLC-97TM1 | 0.223 | 0.22 | 0.209 | 0.264 | 0.234 | 0.223 | 0.243 | 0.204 | 0.22 | 0.209 | 0.184 | 0.224 | 0.0618 | 0.282 | 0.2 | 0.206 | 0.171 | 0.188 |
| EPLC-272H | 0.381 | 0.35 | 0.343 | 0.364 | 0.314 | 0.865 | 0.814 | 0.96 | 0.909 | 0.997 | 0.25 | 0.21 | 0.103 | 0.363 | 0.311 | 0.121 | 0.355 | 0.166 |
| NCI-H1755 | 0.71 | 0.678 | 0.709 | 0.763 | 0.623 | 0.935 | 0.888 | 0.872 | 0.896 | 0.858 | 0.601 | 0.585 | 0.473 | 0.427 | 0.381 | 0.254 | 0.426 | 0.369 |
| H3255 | 0.766 | 0.559 | 0.565 | 0.387 | 0.207 | 0.681 | 0.634 | 0.602 | 0.335 | 0.119 | 0.639 | 0.717 | 0.409 | 0.469 | 0.392 | 0.386 | 0.263 | 0.126 |
| NCI-H441 | 0.243 | 0.22 | 0.222 | 0.277 | 0.217 | 0.795 | 0.535 | 0.896 | 0.848 | 0.728 | 0.608 | 0.554 | 0.266 | 0.333 | 0.49 | 0.425 | 0.527 | 0.452 |
| NCI-H1793 | 0.424 | 0.407 | 0.517 | 0.401 | 0.439 | 0.65 | 0.635 | 0.623 | 0.756 | 0.512 | 0.346 | 0.323 | 0.25 | 0.338 | 0.309 | 0.27 | 0.341 | 0.379 |
| LK-2 | 0.307 | 0.293 | 0.317 | 0.315 | 0.271 | 0.951 | 1.04 | 1.11 | 1.16 | 1.11 | 0.154 | 0.191 | 0.179 | 0.585 | 0.652 | 0.531 | 0.559 | 0.478 |
| SW 1573 | 0.467 | 0.481 | 0.594 | 0.508 | 0.393 | 0.75 | 0.726 | 0.753 | 0.969 | 0.743 | 0.216 | 0.16 | 0.139 | 0.545 | 0.534 | 0.552 | 0.436 | 0.407 |
| HCC-78 | 0.715 | 0.632 | 0.683 | 0.689 | 0.643 | 0.346 | 0.32 | 0.337 | 0.321 | 0.288 | 0.361 | 0.429 | 0.217 | 0.192 | 0.294 | 0.234 | 0.231 | 0.189 |
| SK-MES-1 | 0.419 | 0.38 | 0.411 | 0.276 | 0.252 | 0.913 | 0.929 | 0.86 | 0.851 | 0.646 | 0.958 | 0.892 | 0.48 | 0.379 | 0.294 | 0.319 | 0.259 | 0.22 |
| NCI-H2023 | 0.235 | 0.183 | 0.225 | 0.253 | 0.204 | 0.568 | 0.49 | 0.732 | 0.524 | 0.486 | 0.413 | 0.332 | 0.103 | 0.218 | 0.201 | 0.261 | 0.202 | 0.279 |
| NCI-H2126 | 0.537 | 0.551 | 0.592 | 0.576 | 0.552 | 0.787 | 0.74 | 0.757 | 0.737 | 0.674 | 0.96 | 0.764 | 0.407 | 0.461 | 0.46 | 0.468 | 0.418 | 0.481 |
| RERF-LC-KJ | 0.711 | 0.74 | 0.737 | 0.665 | 0.555 | 0.82 | 0.694 | 0.833 | 0.774 | 0.678 | 0.469 | 0.488 | 0.268 | 0.583 | 0.543 | 0.577 | 0.448 | 0.394 |
| NCI-H3122 | 0.454 | 0.39 | 0.178 | 0.456 | 0.481 | 0.781 | 0.756 | 0.778 | 0.765 | 0.822 | 0.156 | 0.091 | 0.118 | 0.668 | 0.603 | 0.58 | 0.61 | 0.601 |
| NCI-H322M | 0.688 | 0.658 | 0.763 | 0.718 | 0.577 | 0.772 | 0.746 | 0.777 | 0.709 | 0.866 | 0.42 | 0.414 | 0.294 | 0.397 | 0.517 | 0.498 | 0.459 | 0.351 |
| NCI-H647 | 0.356 | 0.396 | 0.349 | 0.35 | 0.41 | 1.03 | 1.1 | 1.11 | 1.1 | 0.786 | 0.0998 | 0.288 | 0.115 | 0.457 | 0.419 | 0.349 | 0.412 | 0.161 |
| EMC-BAC-2 | 1.03 | 0.938 | 0.902 | 0.966 | 0.905 | 0.737 | 0.742 | 0.472 | 0.712 | 0.717 | 0.284 | 0.266 | 0.233 | 0.556 | 0.51 | 0.358 | 0.484 | 0.538 |
